Legend:
[1] = system: secretion levels of IL-6 in PBMC cells; assay: Inhibition of LPS+IL-1β-induced IL-6 secretion in PBMC (IL-6 ELISA); format: cell-based; conditions: human PBMC, 24 h compound pre-incubation, 20 h stimulation
Method: This experiment was carried out in RPMI 1640 medium containing 10% FBS/1% penicillin/streptomycin, with each of the compounds at an initial test concentration of 1 μM. The compound DMSO was dissolved to form a stock solution, which was gradiently diluted 5-fold with the culture medium to a 4× working solution concentration. The diluted solution was added to a 96-well plate with 50 μL per well. PBMC (batch No.: HPP20062307, Sichuan Hope Bio-tech Co., Ltd.) cells were counted, and diluted to a concentration of 2×10^6/mL. The diluted cells were added to the above compound-containing 96-well plate with 150 μL per well, fully mixed, and incubated in an incubator with 5% CO2 at 37° C. for 24 h. Then, LPS and […] were further added to final concentrations of 10 ng/mL and 20 ng/mL, respectively, and the cells were further incubated in the incubator with 5% CO2 at 37° C. for 20 h. Then, after centrifugation at 2,000 rpm for 4 min, the supernatant was diluted 110×, and detected using an IL-6 ELISA kit. An OD450 value was read, and converted to an IL-6 concentration based on a standard curve, to calculate an IC50 value by fitting a dose-effect curve using GraphPad 5.0.

[2] = system: secretion levels of IL-6 in PBMC cells; assay: Inhibition of R848-induced IL-6 secretion in PBMC (IL-6 ELISA); format: cell-based; conditions: human PBMC, 20 h compound pre-incubation, 24 h stimulation
Method: This experiment was carried out in RPMI 1640 medium containing 10% FBS/1% penicillin/streptomycin, with each of the compounds at an initial test concentration of 1 μM. The compound DMSO was dissolved to form a stock solution, which was gradiently diluted 4-fold with the culture medium to a 4× working solution concentration. The diluted solution was added to a 96-well plate with 50 μL per well. PBMC (batch No.: HPP20062307, Sichuan Hope Bio-tech Co., Ltd.) cells were counted, and diluted to a concentration of 2×10^6/mL. The diluted cells were added to the above compound-containing 96-well plate with 150 μL per well, fully mixed, and incubated in an incubator with 5% CO2 at 37° C. for 20 h. Then, R848 was further added until a final concentration of […], and the cells were further incubated in the incubator with 5% CO2 at 37° C. for additional 24 h. Then, after centrifugation at 2,000 rpm for 4 min, the supernatant was diluted 110×, and detected using an IL-6 ELISA kit. An OD450 value was read, and converted to an IL-6 concentration based on a standard curve, to calculate an IC50 value by fitting a dose-effect curve using GraphPad 5.0.

| Compound | IC50 [1] [nM] | IC50 [2] [nM] |
| --- | --- | --- |
| Cc1nn(C2CCC(=O)NC2=O)c2cccc(C3CCN(CC4CCC(n5cc6cc(NC(=O)c7cnn8cccnc78)c(N7CCOCC7)cc6n5)CC4)CC3)c12 (stereo not drawn) [TM-26] | 12.2 | – |
| COc1cc2nn([C@H]3CC[C@H](CN4CCC(c5cccc6c5c(C)nn6C5CCC(=O)NC5=O)CC4)CC3)cc2cc1NC(=O)c1cnn2ccc(N3CCOCC3)nc12 (stereo partly drawn) [TM-27] | 9.53 | 46.8 |
| COc1cc2nn([C@H]3CC[C@H](CN4CCN(c5cccc6c5c(C)nn6C5CCC(=O)NC5=O)CC4)CC3)cc2cc1NC(=O)c1cnn2ccc(N3CCOCC3)nc12 (stereo partly drawn) [TM-28] | – | 23.3 |
| COc1cc2nn([C@H]3CC[C@H](CN4CCN(c5cccc6c5c(C)nn6C5CCC(=O)NC5=O)CC4)CC3)cc2cc1NC(=O)c1cccc(C(F)(F)F)n1 (stereo partly drawn) [TM-29] | – | 56.3 |
| COc1cc2nn([C@H]3CC[C@H](CN4CCN(c5cccc6c5c(C)nn6C5CCC(=O)NC5=O)CC4)CC3)cc2cc1NC(=O)c1cnn2cccnc12 (stereo partly drawn) [TM-30] | 3.69 | – |
| COc1cc2nn([C@H]3CC[C@H](CN4CCN(c5cccc6c5c(C)nn6C5CCC(=O)NC5=O)CC4)CC3)cc2cc1NC(=O)c1cccc(C)n1 (stereo partly drawn) [TM-32] | 22.2 | – |
| COc1cc2nn([C@H]3CC[C@H](CN4CC5CN(c6cccc7c6c(C)nn7C6CCC(=O)NC6=O)CC5C4)CC3)cc2cc1NC(=O)c1cccc(C)n1 (stereo partly drawn) [TM-35] | 29.5 | – |
| COc1cc2nn([C@H]3CC[C@H](CN4CC5CN(c6cccc7c6c(C)nn7C6CCC(=O)NC6=O)CC5C4)CC3)cc2cc1NC(=O)c1cccc(C(F)(F)F)n1 (stereo partly drawn) [TM-36] | 4.99 | – |
| COc1cc2nn([C@H]3CC[C@H](CN4CC5CN(c6cccc7c6c(C)nn7C6CCC(=O)NC6=O)CC5C4)CC3)cc2cc1NC(=O)c1cnn2cccnc12 (stereo partly drawn) [TM-37] | 4.99 | – |
| COc1cc2nn([C@H]3CC[C@H](CN4CC5CN(c6ccc7c(c6)c(C)nn7C6CCC(=O)NC6=O)CC5C4)CC3)cc2cc1NC(=O)c1cccc(C(F)(F)F)n1 (stereo partly drawn) [TM-39] | 115 | – |
| Cc1nn(C2CCC(=O)NC2=O)c2ccc(N3CC4CN(C[C@H]5CC[C@H](n6cc7cc(NC(=O)c8cnn9cccnc89)c(N8CCOCC8)cc7n6)CC5)CC4C3)cc12 (stereo partly drawn) [TM-40] | 138 | – |
| Cc1nn(C2CCC(=O)NC2=O)c2cccc(N3CCN(C[C@H]4CC[C@H](n5cc6cc(NC(=O)c7cnn8cccnc78)c(N7C[C@@H]8C[C@H]7CO8)cc6n5)CC4)CC3)c12 (stereo partly drawn) [TM-45] | 5.48 | – |
| Cc1nn(C2CCC(=O)NC2=O)c2cccc(N3CC4CN(C[C@H]5CC[C@H](n6cc7cc(NC(=O)c8cnn9cccnc89)c(N8C[C@@H]9C[C@H]8CO9)cc7n6)CC5)CC4C3)c12 (stereo partly drawn) [TM-46] | – | 46.8 |
| Cc1nn(C2CCC(=O)NC2=O)c2cccc(N3CCN(C[C@H]4CC[C@H](n5cc6cc(NC(=O)c7cnn8cccnc78)c(N7CCOC8(CC8)C7)cc6n5)CC4)CC3)c12 (stereo partly drawn) [TM-47] | 45.8 | – |
| Cc1nn(C2CCC(=O)NC2=O)c2cccc(N3CC4CN(C[C@H]5CC[C@H](n6cc7cc(NC(=O)c8cnn9cccnc89)c(N8CCOC9(CC9)C8)cc7n6)CC5)CC4C3)c12 (stereo partly drawn) [TM-48] | 47.8 | – |
| Cc1nn(C2CCC(=O)NC2=O)c2cccc(N3CCN(C[C@H]4CC[C@H](n5cc6cc(NC(=O)c7cnn8cccnc78)c(C(F)F)cc6n5)CC4)CC3)c12 (stereo partly drawn) [TM-49] | 16.5 | – |
| Cc1nn(C2CCC(=O)NC2=O)c2cccc(N3CC4CN(C[C@H]5CC[C@H](n6cc7cc(NC(=O)c8cnn9cccnc89)c(C(F)F)cc7n6)CC5)CC4C3)c12 (stereo partly drawn) [TM-50] | 3.81 | – |
| Cc1nn(C2CCC(=O)NC2=O)c2cccc(N3CCC(CN4CCC(n5cc6cc(NC(=O)c7cnn8cccnc78)c(N7CCOCC7)cc6n5)CC4)CC3)c12 (stereo not drawn) [TM-51] | 9.15 | – |
| Cc1nn(C2CCC(=O)NC2=O)c2cccc(N3CCN(C[C@H]4CC[C@H](n5cc6cc(NC(=O)c7cnn8cccnc78)c(N7CCO[C@@H](C)C7)cc6n5)CC4)CC3)c12 (stereo partly drawn) [TM-52] | 10.5 | – |
| Cc1nn(C2CCC(=O)NC2=O)c2cccc(N3CC4CN(C[C@H]5CC[C@H](n6cc7cc(NC(=O)c8cnn9cccnc89)c(N8CCO[C@@H](C)C8)cc7n6)CC5)CC4C3)c12 (stereo partly drawn) [TM-53] | 38.5 | – |

| Compound | IC50 [1] [nM] | IC50 [2] [nM] |
| --- | --- | --- |
| Cc1nn(C2CCC(=O)NC2=O)c2cccc(N3CCN(C[C@H]4CC[C@H](n5cc6cc(NC(=O)c7cnn8cccnc78)c(N7CCO[C@H](C)C7)cc6n5)CC4)CC3)c12 (stereo partly drawn) [TM-54] | 6.29 | 4.26 |
| Cc1nn(C2CCC(=O)NC2=O)c2cccc(N3CCN(C[C@H]4CC[C@H](N5Cc6cc(NC(=O)c7cnn8cccnc78)c(N7CCOCC7)cc6C5=O)CC4)CC3)c12 (stereo partly drawn) [TM-58] | 3.53 | 3.57 |
| Cc1nn(C2CCC(=O)NC2=O)c2cccc(N3CC4CN(C[C@H]5CC[C@H](N6Cc7cc(NC(=O)c8cnn9cccnc89)c(N8CCOCC8)cc7C6=O)CC5)CC4C3)c12 (stereo partly drawn) [TM-59] | 3.57 | 2.21 |
| Cc1nn(C2CCC(=O)NC2=O)c2cccc(OC3CCN(C[C@H]4CC[C@H](N5Cc6cc(NC(=O)c7cnn8cccnc78)c(N7CCOCC7)cc6C5=O)CC4)CC3)c12 (stereo partly drawn) [TM-60] | 4.4 | – |
| Cc1nn(C2CCC(=O)NC2=O)c2cccc(N3CCN(C[C@H]4CC[C@H](n5cc6cc(NC(=O)c7cnn8cccnc78)c(N7C[C@H]8C[C@@H]7CO8)cc6n5)CC4)CC3)c12 (stereo partly drawn) [TM-61] | 7.06 | 3.01 |
| Cc1nn(C2CCC(=O)NC2=O)c2cccc(N3CC4CN(C[C@H]5CC[C@H](n6cc7cc(NC(=O)c8cnn9cccnc89)c(N8C[C@H]9C[C@@H]8CO9)cc7n6)CC5)CC4C3)c12 (stereo partly drawn) [TM-62] | 11.9 | – |
| Cc1nn(C2CCC(=O)NC2=O)c2cccc(N3CCN(C[C@H]4CC[C@H](N5Cc6cc(NC(=O)c7cnn8cccnc78)c(N7CCO[C@H](C)C7)cc6C5=O)CC4)CC3)c12 (stereo partly drawn) [TM-63] | 0.9 | – |
| Cc1nn(C2CCC(=O)NC2=O)c2cccc(N3CCN(C[C@H]4CC[C@H](N5Cc6cc(NC(=O)c7cnn8cccnc78)c(N(C)C)cc6C5=O)CC4)CC3)c12 (stereo partly drawn) [TM-65] | 7.15 | – |
| Cc1nn(C2CCC(=O)NC2=O)c2cccc(N3CCC(CN4CCC(N5Cc6cc(NC(=O)c7cnn8cccnc78)c(N7CCOCC7)cc6C5=O)CC4)CC3)c12 (stereo not drawn) [TM-67] | 52.8 | – |
| Cc1nn(C2CCC(=O)NC2=O)c2cccc(N3CCC(CN4CCC(N5Cc6cc(NC(=O)c7cnn8cccnc78)c(N7CCCOCC7)cc6C5=O)CC4)CC3)c12 (stereo not drawn) [TM-68] | 3.23 | – |
| Cc1nn(C2CCC(=O)NC2=O)c2cccc(N3CCC(CN4CCC(N5Cc6cc(NC(=O)c7cnn8cccnc78)c(N7CCO[C@H](C)C7)cc6C5=O)CC4)CC3)c12 (stereo partly drawn) [TM-69] | 22.9 | – |
| Cc1nn(C2CCC(=O)NC2=O)c2cccc(N3CCN(C[C@H]4CC[C@H](n5cc6cc(NC(=O)c7cnn8cccnc78)c(N(C)C)cc6n5)CC4)CC3)c12 (stereo partly drawn) [TM-70] | 1.18 | – |
| Cc1nn(C2CCC(=O)NC2=O)c2cccc(N3CCC(CN4CCC(n5cc6cc(NC(=O)c7cnn8cccnc78)c(N(C)C)cc6n5)CC4)CC3)c12 (stereo not drawn) [TM-71] | 24.9 | – |
| Cc1nn(C2CCC(=O)NC2=O)c2cccc(N3CCC(CN4CCC(n5cc6cc(NC(=O)c7cnn8cccnc78)c(N7CCO[C@H](C)C7)cc6n5)CC4)CC3)c12 (stereo partly drawn) [TM-72] | 6.82 | – |
| Cc1nn(C2CCC(=O)NC2=O)c2cccc(N3CCN(C[C@H]4CC[C@H](n5cc6cc(NC(=O)c7cnn8cccnc78)c(N7CCOC[C@H]7C)cc6n5)CC4)CC3)c12 (stereo partly drawn) [TM-73] | 43.8 | – |
| Cc1nn(C2CCC(=O)NC2=O)c2cccc(N3CCN(C[C@H]4CC[C@H](n5cc6cc(NC(=O)c7cnn8cccnc78)c(N7CCOC[C@@H]7C)cc6n5)CC4)CC3)c12 (stereo partly drawn) [TM-74] | 29.4 | – |
| Cc1nn(C2CCC(=O)NC2=O)c2cccc(N3CCN(C[C@H]4CC[C@H](n5cc6cc(NC(=O)c7cnn8cccnc78)c(N7CCCOCC7)cc6n5)CC4)CC3)c12 (stereo partly drawn) [TM-79] | 39 | – |
| Cc1nn(C2CCC(=O)NC2=O)c2cccc(N3CCC(CN4CCC(n5cc6cc(NC(=O)c7cnn8cccnc78)c(N7CCCOCC7)cc6n5)CC4)CC3)c12 (stereo not drawn) [TM-82] | 36.5 | – |
| Cc1nn(C2CCC(=O)NC2=O)c2ccnc(N3CCN(C[C@H]4CC[C@H](n5cc6cc(NC(=O)c7cnn8cccnc78)c(N(C)C)cc6n5)CC4)CC3)c12 (stereo partly drawn) [TM-103] | 0.72 | – |
| Cc1nn(C2CCC(=O)NC2=O)c2nccc(N3CCC4(CC3)CN(CC3CCC(n5cc6cc(NC(=O)c7cnn8cccnc78)c(N(C)C)cc6n5)CC3)C4)c12 (stereo not drawn) [TM-114] | 4.79 | – |

From patent US20260146044A1, “AROMATIC COMPOUND, PHARMACEUTICAL COMPOSITION CONTAINING SAME, AND USE THEREOF” (Increland, priority 2023, published 2026)
